We go through 2 compounds from patent US20050137182A1, “Novel crystalline form of cefdinir” (priority 2003, published 2005).

Holding throughout (assay type): physicochemical
The nature of data set [1]: Accelerated storage stability, 40° C. ± 2° C./75% RH ± 5% RH. The note with it: for Assay (% w/w, by HPLC OAB), % change / Total RS (% area normalization, by HPLC) / Assay (% w/w, by HPLC OAB): accelerated 40° C. ± 2° C./75% RH ± 5% RH.
Data set [2] in a line: Real time storage stability, 25° C. ± 2° C./60% RH ± 5% RH. The note with it: for Assay (% w/w, by HPLC OAB), % change / Total RS (% area normalization, by HPLC) / Assay (% w/w, by HPLC OAB): real time 25° C. ± 2° C./60% RH ± 5% RH.
Data set [3] is described as follows: Stress stability study, HPLC purity and assay before and after. Conditions: 60° C.±2° C. for 15 days. Here is the method:
Stress stability studies of cefdinir crystal B were performed by keeping samples of cefdinir crystal B under the conditions of 60° C.±2° C. for 15 days, and the purity and assay of the samples were determined before and after the stress test by high performance liquid chromatography. […] Table 3 summaries the results of the stress test studies.

Where [4] appears, read: 1 Month, listed as Crystal B Sample 1.
Setting [5] is: 2 Months, listed as Crystal B Sample 1.
[6] abbreviates: 2 Months, listed as Crystal B Sample 2.
Setting [7] is: 3 Months, listed as Crystal B Sample 1.
The mark [8] stands for this setting: 3 Months, listed as Crystal B Sample 2.
[9] abbreviates: Initial, listed as Crystal B Sample 1.
Where [10] appears, read: Initial, listed as Crystal B Sample 2.

Each structure is given as a SMILES string. “And” between values parts separate entries of the source, which are not always exact repeats. Equal entries are not always repeated. “Also recorded” adds a separate entry of the source.

Turning to `C=CC1=C(C(=O)O)N2C(=O)[C@@H](NC(=O)/C(=N\O)c3csc(N)n3)[C@H]2SC1` [Cefdinir Crystal A, 7β-[(Z)-2-(2-amino-4-thiazolyl)-2-hydroxyiminoacetamido]-3-vinyl-3-cephem-4-carboxylic acid, reference compound], the “Assay (% w/w, by HPLC OAB), % change” value in data set [1] (1 Month) is −0.5%; in data set [1] (2 Months), −1.6%; in data set [1] (3 Months), −1.8%; in data set [2] (3 Months), −0.2%. Moreover, the “Total RS (% area normalization, by HPLC)” value in data set [1] (1 Month) is given as 1.98 % area; in data set [1] (2 Months), 2.25 % area; in data set [1] (3 Months) it was 2.06 % area; in data set [1] (Initial) it was 0.82 % area; in data set [2] (3 Months), 1.18 % area; in data set [2] (Initial), 0.82 % area. For the same compound, the “Assay (% w/w, by HPLC OAB)” value in data set [1] (Initial) and in data set [2] (Initial) was 96.3 % w/w throughout. Also, the “Change in the assay” value in data set [1] (after 3 months under accelerated storage conditions) is on record as “about 1.8%”. Also, the “Stability under normal storage conditions compared with the other crystal form (in words)” value in data set [2] (25° C.±2° C./60% RH±5% RH, 3 months) was “as stable as crystal B”.

Regarding `C=CC1=C(C(=O)O)N2C(=O)[C@@H](NC(=O)/C(=N\O)c3csc(N)n3)[C@H]2SC1` [Cefdinir Crystal B, 7β-[(Z)-2-(2-amino-4-thiazolyl)-2-hydroxyiminoacetamido]-3-vinyl-3-cephem-4-carboxylic acid], the “Assay (% w/w, by HPLC OAB), % change” value is on record as 0.0% in data set [1] (setting [4]); 0.0% in data set [1] (setting [5]); 0.0% in data set [1] (setting [6]); −0.1% in data set [1] (setting [7]); −0.2% in data set [1] (setting [8]); 0.0% in data set [2] (setting [7]). Also, the “Assay (% w/w, by HPLC OAB), % change” value in data set [2] (setting [8]) was 0.0%. Further, the “Total RS (% area normalization, by HPLC)” value in data set [1] (setting [4]) was 0.72 % area; in data set [1] (1 Month, listed as Crystal B Sample 2), 0.70 % area; in data set [1] (setting [5]), 1.10 % area; in data set [1] (setting [6]), 0.92 % area; in data set [1] (setting [7]), 0.90 % area; in data set [1] (setting [8]) it was 1.08 % area. The “Total RS (% area normalization, by HPLC)” value is on record as 0.64 % area in data set [1] (setting [9]); 0.59 % area in data set [1] (setting [10]); 0.53 % area in data set [2] (setting [7]); 0.61 % area in data set [2] (setting [8]); 0.64 % area in data set [2] (setting [9]); 0.59 % area in data set [2] (setting [10]). In addition, the “Assay (% w/w, by HPLC OAB)” value was 99.9 % w/w in data set [1] (setting [9]), 99.4 % w/w in data set [1] (setting [10]), 99.9 % w/w in data set [2] (setting [9]) and 99.4 % w/w in data set [2] (setting [10]). Moreover, the “Stability under accelerated storage conditions compared with the other crystal form (in words)” value in data set [1] (about 40° C., about 75% RH, up to 3 months) was “increased storage stability; also recorded: superior stability”. The “Amount of compound that degrades” value in data set [1] (over a period of at least 3 months under accelerated storage conditions) is no more than 0.5%. Besides, the “Assay (by HPLC on anhydrous basis, % change)” value in data set [3] was 0%. Moreover, the “Degradation in stress test (in words)” value in data set [3] is given as “did not degrade”. In addition, in data set [3], the “Purity (by HPLC, % change)” value is −0.21% and −0.33%.
